These results are taken from patent US10239873B2, “7-azaindole or 4,7-diazaindole derivatives as IKKϵ epsilon and TBK1 inhibitor and pharmaceutical composition comprising same” (GREEN CROSS CORPORATION, priority 2015, dated 2019).

pIC50: −log10 of the molar value. Bounds are passed on as bounds.

The target in the assay is T1, TBK1 (Homo sapiens, UniProt Q9UHD2).
T1 construct: purchased Promega (Invitrogen is also named in the same bracket) V4158; PR8031B; V3991 (not assigned to the two kinases)
T1 sequence (Q9UHD2 1-729): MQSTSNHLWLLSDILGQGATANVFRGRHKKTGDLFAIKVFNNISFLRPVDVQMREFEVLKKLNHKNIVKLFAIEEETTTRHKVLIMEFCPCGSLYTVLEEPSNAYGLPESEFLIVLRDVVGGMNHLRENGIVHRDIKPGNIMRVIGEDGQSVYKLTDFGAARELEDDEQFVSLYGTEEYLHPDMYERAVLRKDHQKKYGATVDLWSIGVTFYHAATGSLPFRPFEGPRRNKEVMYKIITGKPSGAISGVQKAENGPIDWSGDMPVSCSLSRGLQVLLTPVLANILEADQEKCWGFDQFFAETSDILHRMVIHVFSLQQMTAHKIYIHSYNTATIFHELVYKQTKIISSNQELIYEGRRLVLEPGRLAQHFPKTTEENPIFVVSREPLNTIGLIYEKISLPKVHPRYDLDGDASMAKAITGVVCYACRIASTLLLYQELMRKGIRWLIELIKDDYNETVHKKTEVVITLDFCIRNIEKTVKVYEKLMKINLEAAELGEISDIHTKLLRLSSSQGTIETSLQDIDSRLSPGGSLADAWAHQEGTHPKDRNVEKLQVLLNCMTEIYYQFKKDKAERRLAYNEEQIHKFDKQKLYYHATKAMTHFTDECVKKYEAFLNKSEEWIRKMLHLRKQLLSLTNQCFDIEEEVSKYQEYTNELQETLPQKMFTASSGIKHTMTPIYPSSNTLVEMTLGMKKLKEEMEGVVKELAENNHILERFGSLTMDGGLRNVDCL
Kind of assay: ADP-Glo Kinase Assay, inhibition activity on TBK1. The assay is classed as biochemical. The method, boiled down:
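In 40 mM Tris pH 7.5 with 20 mM MgCl2 and 0.1 mg/mL BSA, each enzyme (IKKε or TBK1 kinase system) was run according to the manufacturer's protocol. ADP formed was detected by ADP-Glo luminescence.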
In the case of `O=C(c1cccs1)N1CC=C(c2c[nH]c3ncc(-c4ccc(CN5CCOCC5)s4)cc23)CC1` [Example 206, (4-(5-(5-(morpholinomethyl)thiophen-2-yl)-1H-pyrrolo[2,3-b]pyridin-3-yl)-5,6-dihydropyridin-1(2H)-yl)(thiophen-2-yl)methanone], the pIC50 (commonly −log10 of the IC50, conventionally taken in molar units) is 7.31.

In the case of `O=C(c1cccs1)N1CC=C(c2c[nH]c3ncc(-c4csc(CN5CCOCC5)c4)cc23)CC1` [Example 207, (4-(5-(5-(morpholinomethyl)thiophen-3-yl)-1H-pyrrolo[2,3-b]pyridin-3-yl)-5,6-dihydropyridin-1(2H)-yl)(thiophen-2-yl)methanone], the pIC50 is 7.32.

Molecule `O=C(c1cccc(-c2cnc3[nH]cc(C4=CCN(C(=O)c5cccs5)CC4)c3c2)c1)N1CCOCC1` [Example 208, (4-(5-(3-(morpholine-4-carbonyl)phenyl)-1H-pyrrolo[2,3-b]pyridin-3-yl)-5,6-dihydropyridin-1(2H)-yl)(thiophen-2-yl)methanone] had a pIC50 of 6.72. This pIC50 lies 0.60 log units lower than the previous one.

With `COc1ccc(-c2cnc3[nH]cc(C4=CCN(C(=O)c5ccc(C)s5)CC4)c3c2)cc1OC` [Example 210, (4-(5-(3,4-dimethoxyphenyl)-1H-pyrrolo[2,3-b]pyridin-3-yl)-5,6-dihydropyridin-1(2H)-yl)(5-methylthiophen-2-yl)methanone], the pIC50 is 5.52.

For `Cc1ccc(C(=O)N2CC=C(c3c[nH]c4ncc(-c5ccc(S(C)(=O)=O)cc5)cc34)CC2)s1` [Example 211, (4-(5-(4-(methylsulfonyl)phenyl)-1H-pyrrolo[2,3-b]pyridin-3-yl)-5,6-dihydropyridin-1(2H)-yl)(5-methylthiophen-2-yl)methanone], the pIC50 was 5.46.

`Cc1ccc(C(=O)N2CC=C(c3c[nH]c4ncc(-c5ccc(S(N)(=O)=O)cc5)cc34)CC2)s1` [Example 212, 4-(3-(1-(5-methylthiophene-2-carbonyl)-1,2,3,6-tetrahydropyridin-4-yl)-1H-pyrrolo[2,3-b]pyridin-5-yl)benzensulfonamide] had a pIC50 of 5.59.

As for `COc1ccc(-c2cnc3[nH]cc(C4=CCN(C(=O)c5cccs5)CC4C)c3c2)cc1OC` (centres unmarked) [Example 213, (4-(5-(3,4-dimethoxyphenyl)-1H-pyrrolo[2,3-b]pyridin-3-yl)-5-methyl-5,6-dihydropyridin-1(2H)-yl)(thiophen-2-yl)methanone], the pIC50 is 6.74.

In the case of `CC1CN(C(=O)c2cccs2)CC=C1c1c[nH]c2ncc(-c3ccc(S(C)(=O)=O)cc3)cc12` (centres unmarked) [Example 214, (5-methyl-4-(5-(4-(methylsulfonyl)phenyl)-1H-pyrrolo[2,3-b]pyridin-3-yl)-5,6-dihydropyridin-1(2H)-yl)(thiophen-2-yl)methanone], the pIC50 is 7.11.

`CC1CN(C(=O)c2cccs2)CC=C1c1c[nH]c2ncc(-c3ccc(C(=O)N4CCOCC4)cc3)cc12` (centres unmarked) [Example 215, (4-(3-(3-methyl-1-(thiophene-2-carbonyl)-1,2,3,6-tetrahydropyridin-4-yl)-1H-pyrrolo[2,3-b]pyridin-5-yl)phenyl)(morpholino)methanone] gave a pIC50 of 7.92.

As for `CC1CN(C(=O)c2cccs2)CC=C1c1c[nH]c2ncc(-c3ccc(CN4CCOCC4)s3)cc12` (centres unmarked) [Example 216, (5-methyl-4-(5-(5-(morpholinomethyl)thiophen-2-yl)-1H-pyrrolo[2,3-b]pyridin-3-yl)-5,6-dihydropyridin-1(2H)-yl)(thiophen-2-yl)methanone], the pIC50 was 7.14.

In turn, `CN(C(=O)N1CC=C(c2c[nH]c3ncc(-c4cccc(S(C)(=O)=O)c4)cc23)CC1)C1CCCC1` [Example 217, N-cyclopentyl-N-methyl-4-(5-(3-(methylsulfonyl)phenyl)-1H-pyrrolo[2,3-b]pyridin-3-yl)-5,6-dihydropyridine-1(2H)-carboxamide] had a pIC50 of 6.44.

In the case of `CN(C(=O)N1CC=C(c2c[nH]c3ncc(-c4cccc(S(N)(=O)=O)c4)cc23)CC1)C1CCCC1` [Example 218, N-cyclopentyl-N-methyl-4-(5-(3-sulfamoylphenyl)-1H-pyrrolo[2,3-b]pyridin-3-yl)-5,6-dihydropyridine-1(2H)-carboxamide], the negative-log IC50 (pIC50) is < 5.00.

Consider `CN(C(=O)N1CC=C(c2c[nH]c3ncc(-c4ccc(S(N)(=O)=O)cc4)cc23)CC1)C1CCCC1` [Example 219, N-cyclopentyl-N-methyl-4-(5-(4-sulfamoylphenyl)-1H-pyrrolo[2,3-b]pyridin-3-yl)-5,6-dihydropyridine-1(2H)-carboxamide], for which the pIC50 was < 5.00.

As for `COc1ccc(-c2cnc3[nH]cc(C4=CCN(C(=O)N(C)C5CCCC5)CC4)c3c2)cc1OC` [Example 220, N-cyclopentyl-4-(5-(3,4-dimethoxyphenyl)-1H-pyrrolo[2,3-b]pyridin-3-yl)-N-methyl-5,6-dihydropyridine-1(2H)-carboxamide], the pIC50 was 5.89.

`Cc1[nH]c2ncc(-c3ccc(S(N)(=O)=O)cc3)cc2c1C1=CCN(C(=O)NC2CCCC2)CC1` [Example 221, N-cyclopentyl-4-(2-methyl-5-(4-sulfamoylphenyl)-1H-pyrrolo[2,3-b]pyridin-3-yl)-5,6-dihydropyridine-1(2H)-carboxamide] gave a pIC50 of 5.70.

`CNS(=O)(=O)c1ccc(-c2cnc3[nH]c(C)c(C4=CCN(C(=O)NC5CCCC5)CC4)c3c2)cc1` [Example 222, N-cyclopentyl-4-(2-methyl-5-(4-(N-methylsulfamoyl)phenyl)-1H-pyrrolo[2,3-b]pyridin-3-yl)-5,6-dihydropyridine-1(2H)-carboxamide]: the pIC50 is 5.17. Against the preceding molecule, the pIC50 is 0.53 log units lower.

`Cc1[nH]c2ncc(-c3ccc(C(=O)N4CCOCC4)cc3)cc2c1C1=CCN(C(=O)NC2CCCC2)CC1` [Example 223, N-cyclopentyl-4-(2-methyl-5-(4-(morpholine-4-carbonyl)phenyl)-1H-pyrrolo[2,3-b]pyridin-3-yl)-5,6-dihydropyridine-1(2H)-carboxamide] had a pIC50 of 5.80.

Regarding `COc1ccc(-c2cc3c(C4=CCN(C(=O)OC(C)(C)C)CC4)c[nH]c3nc2N)cc1OC` [Example 224, tert-butyl 4-(6-amino-5-(3,4-dimethoxyphenyl)-1H-pyrrolo[2,3-b]pyridin-3-yl)-5,6-dihydropyridine-1(2H)-carboxylate], the pIC50 is < 5.00.

On to `CC(C)(C)OC(=O)N1CC=C(c2c[nH]c3nc(N)c(-c4ccc(CN5CCOCC5)s4)cc23)CC1` [Example 225, tert-butyl 4-(6-amino-5-(5-(morpholinomethyl)thiophen-2-yl)-1H-pyrrolo[2,3-b]pyridin-3-yl)-5,6-dihydropyridine-1(2H)-carboxylate], for which the pIC50 was < 5.00.

As to `COc1ccc(-c2cc3c(C4=CCN(C(=O)NC5CCCC5)CC4)c[nH]c3nc2N)cc1OC` [Example 226, 4-(6-amino-5-(3,4-dimethoxyphenyl)-1H-pyrrolo[2,3-b]pyridin-3-yl)-N-cyclopentyl-5,6-dihydropyridine-1(2H)-carboxamide], the pIC50 was < 5.00.

The molecule `Nc1nc2[nH]cc(C3=CCN(C(=O)NC4CCCC4)CC3)c2cc1-c1ccc(CN2CCOCC2)s1` [Example 227, 4-(6-amino-5-(5-(morpholinomethyl)thiophen-2-yl)-1H-pyrrolo[2,3-b]pyridin-3-yl)-N-cyclopentyl-5,6-dihydropyridine-1(2H)-carboxamide] gave a pIC50 of 5.82.

Consider `O=C(NC1CCCC1)N1CC=C(c2c[nH]c3ncc(-c4ccc(CN5CCOCC5)s4)nc23)CC1` [Example 229, N-cyclopentyl-4-(2-(5-(morpholinomethyl)thiophen-2-yl)-5H-pyrrolo[2,3-b]pyrazin-7-yl)-5,6-dihydropyridine-1(2H)-carboxamide], for which the pIC50 was 7.18. This pIC50 is 1.36 log units higher than that of the molecule before.

`COc1ccc(-c2cnc3[nH]cc(C4=CCN(C(=O)OC(C)(C)C)CC4)c3n2)cc1OC` [Example 230, tert-butyl 4-(2-(3,4-dimethoxyphenyl)-5H-pyrrolo[2,3-b]pyrazin-7-yl)-5,6-dihydropyridine-1(2H)-carboxylate] had a pIC50 of 6.49.

The molecule `O=C(c1cccs1)N1CC=C(c2c[nH]c3ncc(-c4ccc(CN5CCOCC5)s4)nc23)CC1` [Example 233, (4-(2-(5-(morpholinomethyl)thiophen-2-yl)-5H-pyrrolo[2,3-b]pyrazin-7-yl)-5,6-dihydropyridin-1(2H)-yl)(thiophen-2-yl)methanone] had a pIC50 of 7.40.

For `CC(C)(C)OC(=O)N1CC=C(c2c[nH]c3ncc(-c4ccc(CN5CCOCC5)s4)nc23)CC1` [Example 234, tert-butyl 4-(2-(5-(morpholinomethyl)thiophen-2-yl)-5H-pyrrolo[2,3-b]pyrazin-7-yl)-5,6-dihydropyridine-1(2H)-carboxylate], the negative-log IC50 (pIC50) was 6.33.

Take `COc1ccc(-c2cnc3[nH]cc(C4CCCN(C(=O)OC(C)(C)C)C4)c3c2)cc1OC` (centres unmarked) [Example 236, tert-butyl 3-(5-(3,4-dimethoxyphenyl)-1H-pyrrolo[2,3-b]pyridin-3-yl)piperidine-1-carboxylate]: the pIC50 is < 5.00.
